Experimental data published in patent US9376436B2, “2-(pyridin-2yl)-1, 7-diaza-spiro [4.4] nonane-6-one compound as voltage-gated sodium channels modulators” (CONVERGENCE PHARMACEUTICALS LIMITED, priority 2011, dated 2016).
Where a name gives a salt, the structure may show the parent alone. Read-outs that look alike come from different tables or passages of the source.

Target: T1, hNaV1.7 (Homo sapiens, UniProt Q15858)
T1 construct: expressed in transfected cells; host or cells: HEK293
Test: QPatch NaV1.7 assay (whole-cell patch clamp, QPatch16x)
Assay type: cell-based
Conditions: HEK293-hNaV1.7 cells
Outline: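 Automated whole-cell recordings in hNaV1.7-expressing HEK293 cells, holding at either −90 mV (mostly closed channels) or the half-inactivation voltage. Compounds applied cumulatively at four concentrations for 120 s each; peak current on 20 ms depolarisation to 0 mV fitted by Hill equation to yield pIC50.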

[1] = holding voltage V1/2 SSI (half of channels inactivated), read-out: QP Nav1.7 SSI vhalf pIC50 (converted)
[2] = holding voltage −90 mV (most channels closed), read-out: QP Nav1.7 −90 mV pIC50 (converted)

T1 sequence (Q15858 whole entry): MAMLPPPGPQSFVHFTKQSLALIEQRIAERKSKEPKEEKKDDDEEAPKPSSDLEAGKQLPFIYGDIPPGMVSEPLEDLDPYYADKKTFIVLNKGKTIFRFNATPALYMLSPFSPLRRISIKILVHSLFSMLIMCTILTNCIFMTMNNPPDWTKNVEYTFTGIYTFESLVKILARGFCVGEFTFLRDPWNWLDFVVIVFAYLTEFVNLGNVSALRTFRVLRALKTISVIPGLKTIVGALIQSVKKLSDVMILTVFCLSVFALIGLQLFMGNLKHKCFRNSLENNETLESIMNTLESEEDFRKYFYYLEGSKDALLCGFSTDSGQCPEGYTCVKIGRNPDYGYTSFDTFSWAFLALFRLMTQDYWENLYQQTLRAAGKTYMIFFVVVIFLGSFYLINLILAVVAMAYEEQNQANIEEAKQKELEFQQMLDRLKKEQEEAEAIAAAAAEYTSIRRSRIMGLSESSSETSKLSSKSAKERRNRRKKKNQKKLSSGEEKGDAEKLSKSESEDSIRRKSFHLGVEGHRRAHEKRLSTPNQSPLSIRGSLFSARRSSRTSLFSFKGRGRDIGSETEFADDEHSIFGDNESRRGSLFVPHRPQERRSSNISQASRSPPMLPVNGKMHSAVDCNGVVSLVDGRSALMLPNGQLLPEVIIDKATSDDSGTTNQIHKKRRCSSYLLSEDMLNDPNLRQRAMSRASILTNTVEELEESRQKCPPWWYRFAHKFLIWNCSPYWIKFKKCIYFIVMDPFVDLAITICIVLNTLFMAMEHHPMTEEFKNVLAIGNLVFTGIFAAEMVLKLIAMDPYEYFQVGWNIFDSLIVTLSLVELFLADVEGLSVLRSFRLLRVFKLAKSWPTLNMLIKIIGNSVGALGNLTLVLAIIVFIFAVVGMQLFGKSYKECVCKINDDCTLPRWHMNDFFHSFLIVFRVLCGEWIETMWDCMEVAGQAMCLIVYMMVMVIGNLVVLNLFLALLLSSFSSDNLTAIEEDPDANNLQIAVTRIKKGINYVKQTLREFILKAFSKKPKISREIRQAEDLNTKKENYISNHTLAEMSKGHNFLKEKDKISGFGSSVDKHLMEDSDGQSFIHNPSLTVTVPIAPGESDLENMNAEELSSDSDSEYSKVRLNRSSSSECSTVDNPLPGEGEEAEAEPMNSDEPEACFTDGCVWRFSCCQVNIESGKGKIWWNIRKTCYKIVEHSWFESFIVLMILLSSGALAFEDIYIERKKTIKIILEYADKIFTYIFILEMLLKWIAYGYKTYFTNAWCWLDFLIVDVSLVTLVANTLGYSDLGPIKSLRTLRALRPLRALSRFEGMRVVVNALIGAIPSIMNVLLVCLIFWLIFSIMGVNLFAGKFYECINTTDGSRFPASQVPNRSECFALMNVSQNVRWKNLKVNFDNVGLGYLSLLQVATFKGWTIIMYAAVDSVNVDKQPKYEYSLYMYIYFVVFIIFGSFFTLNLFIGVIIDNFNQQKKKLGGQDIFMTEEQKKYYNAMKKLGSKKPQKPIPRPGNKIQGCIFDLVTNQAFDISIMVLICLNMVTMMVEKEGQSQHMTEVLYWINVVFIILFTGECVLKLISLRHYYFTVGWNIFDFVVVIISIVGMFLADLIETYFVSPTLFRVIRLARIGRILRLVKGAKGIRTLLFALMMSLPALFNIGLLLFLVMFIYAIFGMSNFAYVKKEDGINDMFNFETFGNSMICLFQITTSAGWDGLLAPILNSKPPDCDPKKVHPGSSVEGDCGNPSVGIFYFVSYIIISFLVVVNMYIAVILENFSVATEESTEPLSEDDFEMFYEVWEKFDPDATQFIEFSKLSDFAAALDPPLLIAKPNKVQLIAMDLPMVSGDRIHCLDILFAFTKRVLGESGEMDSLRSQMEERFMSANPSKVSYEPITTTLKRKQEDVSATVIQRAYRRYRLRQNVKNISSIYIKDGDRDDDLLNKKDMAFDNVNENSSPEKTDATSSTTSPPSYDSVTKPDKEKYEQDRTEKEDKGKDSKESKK

SMILES	IC50 [1] [µM]	IC50 [2] [µM]
CCOc1ccc(F)c(-c2cc(C)nc([C@@H]3CC[C@]4(CCN(C)C4=O)N3C)c2)c1 [Example 231, (2S,5R)-2-[4-(5-Ethoxy-2-fluoro-phenyl)-6-methyl-2-pyridyl]-1,7-dimethyl-1,7-diazaspiro-[4.4]nonan-6-one hydrochloride]	1	12.6
CN1[C@@H](c2cc(-c3ccc(C(F)(F)F)cc3)ccn2)CC[C@]12CCCNC2=O [Example 232, hydrochloride]	1.26	7.94
CCN1[C@H](c2cc(-c3ccc(C(F)(F)F)cc3)ccn2)CC[C@]12CCCNC2=O [Example 233, hydrochloride]	12.6	31.6
CCOc1ccc(F)c(-c2cc(C(C)C)nc([C@H]3CC[C@]4(CCN(C)C4=O)N3)c2)c1 [Example 234, (2R,5R)-2-[4-(5-Ethoxy-2-fluoro-phenyl)-6-isopropyl-2-pyridyl]-7-methyl-1,7-diazaspiro[4.4]nonan-6-one hydrochloride]	0.0501	1
CCOc1ccc(F)c(-c2cc(C(C)C)nc([C@@H]3CC[C@]4(CCN(C)C4=O)N3)c2)c1 [Example 235, (2S,5R)-2-[4-(5-Ethoxy-2-fluoro-phenyl)-6-isopropyl-2-pyridyl]-7-methyl-1,7-diazaspiro[4.4]nonan-6-one hydrochloride]	2	15.8
CCOc1ccc(F)c(-c2cc([C@H]3CC[C@@]4(CCN(C)C4=O)N3)ncc2CC)c1 [Example 241, (2R,5S)-2-[4-(5-Ethoxy-2-fluoro-phenyl)-5-ethyl-2-pyridyl]-7-methyl-1,7-diazaspiro[4.4]nonan-6-one hydrochloride]	15.8	100
CCOc1ccc(F)c(-c2cc([C@@H]3CC[C@]4(CCN(C)C4=O)N3)ncc2CC)c1 [Example 242, (2S,5R)-2-[4-(5-Ethoxy-2-fluoro-phenyl)-5-ethyl-2-pyridyl]-7-methyl-1,7-diazaspiro[4.4]nonan-6-one hydrochloride]	20	100
CCOc1ccc(F)c(-c2ccnc([C@H]3CC[C@]4(CC[C@H](C)NC4=O)N3)c2)c1 [Example 243, hydrochloride]	1.26	15.8
CCOc1ccc(F)c(-c2ccnc([C@@H]3CC[C@]4(CC[C@H](C)NC4=O)N3)c2)c1 [Example 244, hydrochloride]	3.16	39.8
CCOc1ccc(F)c(-c2ccnc([C@H]3CC[C@@]4(CC[C@H](C)NC4=O)N3)c2)c1 [Example 246, hydrochloride]	1	15.8

Now from value to compound:

IC50 [1] [µM]	IC50 [2] [µM]	SMILES
0.631	6.31	CCOc1ccc(F)c(-c2cc(C(C)C)nc([C@@H]3CC[C@@]4(CCN(C)C4=O)N3)c2)c1 [Example 236, (2S,5S)-2-[4-(5-Ethoxy-2-fluoro-phenyl)-6-isopropyl-2-pyridyl]-7-methyl-1,7-diazaspiro[4.4]nonan-6-one hydrochloride]
0.316	2.51	CCOc1ccc(F)c(-c2cc(C(C)C)nc([C@H]3CC[C@@]4(CCN(C)C4=O)N3)c2)c1 [Example 237, (2R,5S)-2-[4-(5-Ethoxy-2-fluoro-phenyl)-6-isopropyl-2-pyridyl]-7-methyl-1,7-diazaspiro[4.4]nonan-6-one hydrochloride]
1.26	15.8	CCOc1ccc(F)c(-c2cc(OC)nc([C@@H]3CC[C@@]4(CCN(C)C4=O)N3)c2)c1 [Example 249, (2S,5S)-2-[4-(5-Ethoxy-2-fluoro-phenyl)-6-methoxy-2-pyridyl]-7-methyl-1,7-diazaspiro[4.4]nonan-6-one hydrochloride]
1.26	20	CCOc1ccc(F)c(-c2cc(OC)nc([C@H]3CC[C@@]4(CCN(C)C4=O)N3)c2)c1 [Example 250, (2R,5S)-2-[4-(5-Ethoxy-2-fluoro-phenyl)-6-methoxy-2-pyridyl]-7-methyl-1,7-diazaspiro[4.4]nonan-6-one hydrochloride]
